Reference: PMC7201828, “Comparison of Inhibitor and Substrate Selectivity between Rodent and Human Vascular Adhesion Protein-1” (Mediators of Inflammation, 2020)
Entries after “also recorded” stand apart in the source; their conditions may differ. Like-named read-outs stand apart in the source and are kept apart here.

Tests used:
[1] = tested on: human VAP-1; design: method as in PMID 23540955; conditions: recombinant enzyme suspension from CHO cells expressing human VAP-1, 14C-BA; read-out: IC50 previously reported, Human; cited from earlier work
[2] = tested on: rat VAP-1; design: method as in PMID 23540955; conditions: recombinant enzyme suspension from CHO cells expressing rat VAP-1, 14C-BA; read-out: IC50 previously reported, Rat; cited from earlier work
[3] = target: T1, recombinant human VAP-1 (rhVAP-1) (Homo sapiens, UniProt Q16853); test: VAP-1 oxidative deamination fluorescence assay (Amplex Red, benzylamine), inhibition; type: biochemical; conditions: for IC50: recombinant human VAP-1, 50 μM BA, 30 minutes at 37°C, three separate determinations, read-out: IC50 mean ± SD, Human
T1 construct: purchased R&D Systems 3957-AO-010; host or cells: Spodoptera frugiperda Sf21 (baculovirus)
T1 sequence (Q16853 27-763 limits assumed): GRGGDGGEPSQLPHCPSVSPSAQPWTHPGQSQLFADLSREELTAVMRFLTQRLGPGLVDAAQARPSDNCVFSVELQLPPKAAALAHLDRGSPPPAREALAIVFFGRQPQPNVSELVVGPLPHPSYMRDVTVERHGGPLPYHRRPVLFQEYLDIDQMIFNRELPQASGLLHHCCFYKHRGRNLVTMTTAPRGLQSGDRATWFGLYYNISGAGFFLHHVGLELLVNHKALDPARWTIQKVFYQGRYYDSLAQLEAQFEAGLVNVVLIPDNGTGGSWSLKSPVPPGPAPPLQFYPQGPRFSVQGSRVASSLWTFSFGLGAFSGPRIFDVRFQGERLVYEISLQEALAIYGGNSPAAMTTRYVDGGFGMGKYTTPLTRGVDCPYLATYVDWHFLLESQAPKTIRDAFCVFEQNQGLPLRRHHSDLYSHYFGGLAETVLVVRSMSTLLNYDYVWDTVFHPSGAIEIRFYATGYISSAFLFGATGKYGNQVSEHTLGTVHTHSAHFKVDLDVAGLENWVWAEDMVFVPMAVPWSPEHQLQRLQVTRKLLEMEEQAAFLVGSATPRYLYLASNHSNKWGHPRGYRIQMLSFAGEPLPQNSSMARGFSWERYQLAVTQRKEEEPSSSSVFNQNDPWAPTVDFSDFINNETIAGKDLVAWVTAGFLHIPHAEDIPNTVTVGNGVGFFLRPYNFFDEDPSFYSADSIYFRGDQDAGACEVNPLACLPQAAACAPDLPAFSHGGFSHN
Method: (§1) Data processing was performed using Prism software.

[4] = target: T2, recombinant rat VAP-1 (rrVAP-1) (Rattus norvegicus, UniProt O08590); test: as above; type: biochemical; conditions: recombinant rat VAP-1, 50 μM BA, 30 minutes at 37°C, three separate determinations; read-out: IC50 mean ± SD, Rat
T2 construct: purchased R&D Systems (custom product); host or cells: Spodoptera frugiperda Sf21 (baculovirus)
T2 sequence (O08590 28-763 limits assumed): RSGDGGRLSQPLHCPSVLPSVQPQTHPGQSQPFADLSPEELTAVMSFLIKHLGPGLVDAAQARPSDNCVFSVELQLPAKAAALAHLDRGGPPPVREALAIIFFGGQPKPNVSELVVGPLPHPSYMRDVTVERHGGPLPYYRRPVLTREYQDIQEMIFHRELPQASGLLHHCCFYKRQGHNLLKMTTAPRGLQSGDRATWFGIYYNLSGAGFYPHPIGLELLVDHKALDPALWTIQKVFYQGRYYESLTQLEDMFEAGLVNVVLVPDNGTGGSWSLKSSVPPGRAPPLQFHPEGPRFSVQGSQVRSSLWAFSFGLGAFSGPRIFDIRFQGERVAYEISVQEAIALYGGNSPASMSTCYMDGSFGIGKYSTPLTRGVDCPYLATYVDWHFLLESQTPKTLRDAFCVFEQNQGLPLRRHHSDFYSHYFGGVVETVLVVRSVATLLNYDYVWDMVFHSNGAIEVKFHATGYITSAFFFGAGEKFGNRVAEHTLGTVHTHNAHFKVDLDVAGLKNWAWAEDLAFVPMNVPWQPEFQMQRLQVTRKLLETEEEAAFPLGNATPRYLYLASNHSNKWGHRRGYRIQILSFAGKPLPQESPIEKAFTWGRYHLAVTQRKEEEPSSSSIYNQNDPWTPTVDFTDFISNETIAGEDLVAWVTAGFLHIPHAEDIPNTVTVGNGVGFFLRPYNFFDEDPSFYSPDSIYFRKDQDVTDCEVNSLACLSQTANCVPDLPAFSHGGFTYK
Method: as §1

[5] = tested on: STZ-induced diabetic rats; design: method as in PMID 23664164; conditions: administered subcutaneously; cited from earlier work
[6] = target: T3, recombinant mouse VAP-1 (rmVAP-1) (Mus musculus, UniProt O70423); test: VAP-1 oxidative deamination fluorescence assay (Amplex Red, benzylamine), inhibition
T3 sequence (O70423 28-765 limits assumed): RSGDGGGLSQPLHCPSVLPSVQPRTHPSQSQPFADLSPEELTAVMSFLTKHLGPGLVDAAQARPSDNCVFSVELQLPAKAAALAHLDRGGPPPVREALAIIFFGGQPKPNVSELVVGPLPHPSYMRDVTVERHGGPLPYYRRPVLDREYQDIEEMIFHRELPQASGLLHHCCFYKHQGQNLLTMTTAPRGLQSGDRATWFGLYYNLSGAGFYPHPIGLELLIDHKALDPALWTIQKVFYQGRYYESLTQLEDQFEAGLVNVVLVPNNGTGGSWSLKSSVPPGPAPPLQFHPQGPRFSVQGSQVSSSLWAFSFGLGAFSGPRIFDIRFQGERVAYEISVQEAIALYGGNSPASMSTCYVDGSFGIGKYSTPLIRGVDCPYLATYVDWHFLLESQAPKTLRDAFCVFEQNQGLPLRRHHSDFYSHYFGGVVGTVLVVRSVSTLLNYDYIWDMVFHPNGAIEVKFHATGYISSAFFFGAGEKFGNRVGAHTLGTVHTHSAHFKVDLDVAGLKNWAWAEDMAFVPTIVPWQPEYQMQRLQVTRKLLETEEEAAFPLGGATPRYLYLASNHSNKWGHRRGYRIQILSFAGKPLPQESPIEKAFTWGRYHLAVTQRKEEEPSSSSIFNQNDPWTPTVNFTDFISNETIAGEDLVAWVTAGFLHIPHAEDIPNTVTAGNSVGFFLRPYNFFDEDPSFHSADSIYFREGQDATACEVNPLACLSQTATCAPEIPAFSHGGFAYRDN
Method: (§2) The enzymatic activity of recombinant VAP-1 and inhibitor potency was determined using a variation of the fluorometric assay for measuring hydrogen peroxide formation [22]. Briefly, the assay measures the H2O2 generated during the oxidative deamination of an amine substrate (BA for inhibition purposes) by converting Amplex® Red to the fluorescent product, resorufin, via horseradish peroxidase (HRP). […] Stock solutions of Amplex Red (1 mM), HRP (10 U/mL), the substrates (200 μM BA for inhibition), and inhibitor were prepared in reaction buffer and added to the appropriate wells, that the final concentration in each well was 0.05 mM Amplex Red, 0.5 U/mL HRP, and 50 μM BA (saturating condition) in a total reaction volume of 0.1 mL.
(§3) Standard curves were prepared for each plate by serially diluting H2O2 in reaction buffer with equivalent concentrations of Amplex Red and HRP. A 10 μM solution of resorufin was prepared in reaction buffer and was dispensed in duplicate as the positive control for maximum fluorescence. Plates were incubated for 30 minutes at 37°C, protected from light under foil to minimize the resorufin artifactually formed when Amplex Red is exposed to light [28]. The plate was read at 530/35 emission and 590/35 excitation. The mean fluorescence of the background was subtracted from the mean fluorescence of the inhibitor concentration in the presence of BA. The percent control was calculated using equation (1). […] (1) %control=average fluorescence with inhibitor−background/average fluorescence of reaction without inhibitor−background×100, (2) %inhibition=100−%control.

[7] = tested on: rhVAP-1; design: method as in PMID 23664164; conditions: recombinant human VAP-1; cited from earlier work
[8] = tested on: VAP-1 in bovine lung microsomes; design: method as in PMID 8694842; conditions: coincubated with benzylamine; cited from earlier work
[9] = tested on: human VAP-1 from aorta membrane preparations; conditions: read-out: IC50 previously reported, Human, LC-MS/MS benzaldehyde formation; cited from earlier work
[10] = target: human VAP-1 recombinant enzymes; conditions: read-out: IC50 previously reported, Human, LC-MS/MS benzaldehyde formation; cited from earlier work
[11] = tested on: VAP-1 from rat aorta homogenates; conditions: read-out: IC50 previously reported, Rat, 14C-BA; cited from earlier work
[12] = tested on: VAP-1 from human umbilical cord homogenates; design: method as in PMID 16081681; conditions: radiolabeled substrate, read-out: IC50 previously reported, Human; cited from earlier work
[13] = tested on: rats; design: method as in PMID 16081681, PMID 23263543; conditions: oral administration to rats, carrageenan footpad model; cited from earlier work
[14] = tested on: mice; design: method as in PMID 16081681, PMID 23263543; conditions: oral administration to mice, ulcerative colitis and LPS-induced endotoxemia; cited from earlier work
[15] = tested on: VAP-1 from rat lung homogenates; design: method as in PMID 16081681; conditions: radiolabeled substrate, read-out: IC50 previously reported, Rat; cited from earlier work
[16] = tested on: rat and mouse disease models; conditions: various rat and mouse disease models; cited from earlier work
[17] = tested on: VAP-1 in in vitro tissue preparations; design: method as in PMID 8920635; conditions: humans; cited from earlier work
[18] = tested on: lysyl oxidase (LOX); design: method as in PMID 17872591, PMID 17452500, PMID 18469024; conditions: cited from earlier work
[19] = tested on: VAP-1; design: method as in PMID 16570912; conditions: cell-based inhibition assay; cited from earlier work
[20] = target: recombinant mouse VAP-1 (Mus musculus, UniProt O70423); test: Substrate saturation curves, fluorometric assay detecting hydrogen peroxide; conditions: recombinant mouse VAP-1, n = 1 plate
Method: as §2, §3
(§4) Both substrates were incubated with recombinant VAP-1 in triplicate on three separate plates.

[21] = target: recombinant human VAP-1 (Homo sapiens, UniProt Q16853); test: as above; conditions: recombinant human VAP-1, n = 1 plate
Method: as §2, §3, §4

[22] = target: recombinant rat VAP-1 (Rattus norvegicus, UniProt O08590); test: as above; conditions: recombinant rat VAP-1, n = 1 plate
Method: as §2, §3, §4

CC(=O)Nc1nc(CCc2ccc(NC(=N)N)cc2)c(Cc2ccc(S(C)(=O)=O)cc2)s1 [Astellas compound 35c]
IC50 [1]: 20 nM | IC50 [2]: 72 nM | IC50 [3]: 22.5 ± 6.9 nM | IC50 [4]: 50.4 ± 6.8 nM | Ocular permeability [5]: significantly reduced ocular permeability | IC50 [6]: 414 ± 113 nM | IC50 [7]: 230 nM

NNc1nncc2ccccc12 [Hydralazine (HYD), hydralazine]
Potency relative to semicarbazide [8]: twenty times more potent | IC50 [9]: 6400 nM | IC50 [3]: 7750 ± 2320 nM | IC50 [4]: 3130 ± 123 nM | IC50 [6]: 1180 ± 92 nM | IC50 [10]: 26500 nM | IC50 [11]: 25 nM

C=C(CNN)c1ccccc1 [LJP-1207]
IC50 [12]: 17 nM | IC50 [3]: 252 ± 22.5 nM | IC50 [4]: 120 ± 6.7 nM | Reduction of inflammation [13]: effective in reducing inflammation | IC50 [6]: 102 ± 47.8 nM | Reduction of inflammation [14]: effective in reducing inflammation | IC50 [15]: 7.5 nM

CC(C)(C)NC(=O)c1ccc(OC/C(=C/F)CN)cc1 [PXS-4728A]
Leukocyte adhesion and migration to sites of lung inflammation [16]: reduced leukocyte adhesion and migration

NCCc1ccccc1 [Phenylethylamine (PEA), phenylethylamine]
Km [17]: 7.9 mM

NNC(N)=O [Semiarid (SEM), semicarbazide]
Difference in IC50 between human and rat VAP-1 ([3]; 85.9 μM vs. 993 μM): ~10 fold | IC50 [3]: 85900 ± 12900 nM | IC50 [4]: 993000 ± 1.22e+06 nM | IC50 ([6]; read-out: IC50 mean ± SD, Mouse, recombinant mouse VAP-1, 50 μM BA, 30 minutes at 37°C, three separate determinations): 295000 ± 29000 nM | Inhibition of lysyl oxidase (in words) [18]: inhibits | Semicarbazide required for inhibition relative to LJP-1207 [19]: 100 x

NCCc1ccc(O)cc1 [TYR, tyramine]
Substrate turnover (in words) [20]: low reaction rates; also recorded: not a substrate | Km [17]: 10.5 mM

NNCCc1ccccc1 [phenelzine]
Potency relative to semicarbazide [8]: over 100 times

NNc1ccccc1 [phenylhydrazine]
Potency relative to semicarbazide [8]: over 100 times

NCCc1c[nH]c2ccccc12 [tryptamine]
Substrate turnover (in words) [20]: low reaction rates | Substrate turnover (in words) [21]: low reaction rates | Substrate turnover (in words) [22]: low reaction rates
